ChEMBL document CHEMBL1139809, “Antinociceptive activity of furan-containing congeners of improgan and ranitidine” (2007)

Tested on: Rattus norvegicus
Assay: Antinociceptive activity in icv dosed Sprague-Dawley rat assessed as latency to hind lift after 10 mins by hot plate test
Type: functional

Compound | ED50
CN(C)Cc1ccc(CCCCNC(=O)Nc2ccc(I)cc2)o1 | >226 nmol
CN(C)Cc1ccc(CCCCCCNC(=O)Nc2ccccc2)o1 | 284 nmol
CN(C)Cc1ccc(CCCCNC(=O)c2ccccc2)o1 | 203 nmol
CN(C)Cc1ccc(CCCCCCNC(=O)Nc2ccc(I)cc2)o1 | >149 nmol
CN(C)Cc1ccc(CCCCc2ccccc2)o1 | 143 nmol
CN/C(=N/C#N)NCCCCc1ccc(CN(C)C)o1 | 159 nmol
CN/C(=N/C#N)NCCCCCCc1ccc(CN(C)C)o1 | 120 nmol
CN(C)Cc1ccc(CCCCN)o1 | 689 nmol
CC(=O)NCCCCc1ccc(CN(C)C)o1 | 126 nmol
CN/C(=C/[N+](=O)[O-])NCCCCc1ccc(CN(C)C)o1 | 111 nmol
CN(C)Cc1ccc(CCCCNc2ccccc2)o1 | 131 nmol
CN/C(=C/[N+](=O)[O-])NCCCCCCc1ccc(CN(C)C)o1 | 25 nmol
